Data published in patent US20080096967A1, “Formulations for Injection of Catecholic Butanes, Including Ndga Compounds, Into Animals” (priority 2005, published 2008).

Experiment: Solubility and room temperature stability of M4N in modified cyclodextrin / PEG formulations (visual inspection)
Assay type: physicochemical
Experimental: A 100 mL solution of 40% HP-β-CD for use as a solubilizing agent and/or excipient was made as follows: 65 mL of WFI were placed in a glass beaker containing a stir bar. The beaker was placed on a magnetic plate, and the stir bar was set to stir at medium speed. About forty (40) grams of HP-β-CD were added slowly to the stirring WFI, using a spatula to direct the HP-β-CD to the center of the beaker so as to prevent HP-β-CD crystals from sticking to the beaker wall. The HP-β-CD solution was stirred for about 24 hr or until the HP-β-CD was dissolved completely upon visual inspection. The resulting solution measured about 93 mL. About 7 mL of WFI was added to this resulting solution to obtain 100 mL, producing a final solution of about 40% HP-β-CD. The final solution was stirred for about 1 hr, stored at room temperature, and was protected from light. This method of making the modified cyclodextrin solution may be scaled up or down to obtain the desired volume or concentration. Other concentrations or other modified cyclodextrin solutions may be similarly made, for example, by substituting HP-β-CD with other modified cyclodextrins, adjusted for the appropriate concentrations in the process described above.
A 10 mL solution of M4N at a concentration of about 10 mg/mL in 40% HP-β-CD was made as follows. About 10 mL of the 40% HP-β-CD solution were added to a glass beaker containing a stir bar. The beaker was placed on a magnetic plate and the stir bar was set to stir at medium speed. About […] of M4N were slowly added to the 40% HP-β-CD in the center of the beaker with the aid of a spatula. The M4N/40% HP-β-CD mixture was stirred for 2 hr or until all M4N was uniformly suspended without any clumps being present. The M4N/40% HP-β-CD mixture was optionally heated at 80° C. for about 30 min. (or longer if a larger volume of solution was desired, for example, 1 hr at 80° C. for 100 mL of the M4N/HP-β-CD mixture), or longer as needed to ensure complete dissolution of M4N. […] The final M4N/40% HP-β-CD solution was stored at room temperature and was kept protected from light. This process may be scaled up or down to obtain the requisite volume or concentration of M4N. Formulations containing M4N in other cyclodextrin solutions may be similarly made, such as, for example, by substituting HP-β-CD in the process described above with other cyclodextrins.
A 100 mL solution of M4N at a concentration of about 25 mg/mL in PEG 300 was made as follows. About 100 mL of PEG 300 were added to a glass beaker containing a stir bar. The beaker was placed on a magnetic plate and the stir bar was set to stir at medium speed. About 2.5 g of M4N were slowly added to the PEG 300 in the center of the beaker with the aid of a spatula to prevent M4N from sticking to the beaker wall. The M4N/PEG 300 mixture was stirred for 24 hr or until all M4N had dissolved or was uniformly suspended without any clumps being present. The M4N/PEG 300 mixture was optionally heated at about 60° C. for about 30 min. (or longer if a larger volume of solution was desired, for example, 1 hr at 60° C. for 500 mL of the M4N/PEG 300 mixture), or longer as needed to ensure complete dissolution of M4N. […] If crystals formed, the M4N/PEG 300 solution could be heated again at 60° C. for about 1 hr, with stirring, on a hot magnetic plate until all M4N was dissolved back in solution. The final M4N/PEG 300 solution was stored at room temperature and was kept protected from light. This process may be scaled up or down to obtain the requisite volume or concentration of M4N. Formulations containing M4N in other PEGs may be similarly made, such as, for example, by substituting PEG 300 in the process described above with PEG 400 or PEG 400 monolaurate. […]

Compound: COc1ccc(C[C@@H](C)[C@@H](C)Cc2ccc(OC)c(OC)c2)cc1OC [Formulation M4N, meso-1,4-bis(3,4-dimethoxyphenyl)-2,3-dimethylbutane]
- Dissolution After Heating at X ° C. (1.50% β-CD, M4N 1 mg/mL, 90°): N at 90°
- Dissolution After Heating at X ° C. (1.50% β-CD, M4N 10 mg/mL, 90°): N at 90°
- Stability at Room Temperature (5% HP-β-CD, 12.5% PEG 300 (v/v), M4N 3.13 mg/mL): <7 days
- Dissolution After Heating at X ° C. (5% HP-β-CD, 12.5% PEG 300 (v/v), M4N 3.13 mg/mL, 60°): Y at 60°
- Dissolution After Heating at X ° C. (5% γ-CD, M4N 1 mg/mL, 90°): N at 90°
- Stability at Room Temperature (6.7% HP-β-CD, 16.7% PEG 300 (v/v), M4N 4.17 mg/mL): >7 days
- Dissolution After Heating at X ° C. (6.7% HP-β-CD, 16.7% PEG 300 (v/v), M4N 4.17 mg/mL, 60°): Y at 60°
- Stability at Room Temperature (10% HP-β-CD, 25% PEG 300 (v/v), M4N 6.25 mg/mL): >7 days
- Dissolution After Heating at X ° C. (10% HP-β-CD, 25% PEG 300 (v/v), M4N 6.25 mg/mL, 60°): Y at 60°
- Dissolution After Heating at X ° C. (10% HP-β-CD, 77% PEG 300 (v/v), M4N 19.3 mg/mL, 60°): Y at 60°
- Stability at Room Temperature (12.5% HP-β-CD, 50% PEG 300 (v/v), M4N 12.5 mg/mL): <1 days
- Dissolution After Heating at X ° C. (12.5% HP-β-CD, 50% PEG 300 (v/v), M4N 12.5 mg/mL, 60°): Y at 60°
- Dissolution After Heating at X ° C. (13% HP-β-CD, 67% PEG 300 (v/v), M4N 16.7 mg/mL, 60°): Y at 60°
- Stability at Room Temperature (15% HP-β-CD, 50% PEG 300 (v/v), M4N 12.5 mg/mL): <7 days
- Dissolution After Heating at X ° C. (15% HP-β-CD, 50% PEG 300 (v/v), M4N 12.5 mg/mL, 60°): Y at 60°
- Dissolution After Heating at X ° C. (15% α-CD, M4N 10 mg/mL, 90°): N at 90°
- Dissolution After Heating at X ° C. (15% α-CD, M4N 50 mg/mL, 90°): N at 90°
- Dissolution After Heating at X ° C. (15% α-CD, M4N 100 mg/mL, 90°): N at 90°
- Stability at Room Temperature (20% HP-β-CD, 50% PEG 300 (v/v), M4N 12.5 mg/mL): >7 days
- Dissolution After Heating at X ° C. (20% HP-β-CD, 50% PEG 300 (v/v), M4N 12.5 mg/mL, 60°): Y at 60°
- Stability at Room Temperature (20% HP-β-CD, M4N 1 mg/mL): >7 days
- Dissolution After Heating at X ° C. (20% HP-β-CD, M4N 1 mg/mL, 90°): Y at 90°
- Dissolution After Heating at X ° C. (20% HP-β-CD, M4N 10 mg/mL, 90°): N at 90°
- Stability at Room Temperature (23% HP-β-CD, 43 PEG 300 (v/v), M4N 12.9 mg/mL): >7 days
- Dissolution After Heating at X ° C. (23% HP-β-CD, 43 PEG 300 (v/v), M4N 12.9 mg/mL, 60°): Y at 60°
- Stability at Room Temperature (27% HP-β-CD, 33% PEG 300 (v/v), M4N 13.3 mg/mL): >7 days
- Dissolution After Heating at X ° C. (27% HP-β-CD, 33% PEG 300 (v/v), M4N 13.3 mg/mL, 60°): Y at 60°
- Stability at Room Temperature (27% HP-β-CD, 33% PEG 400 (v/v), M4N 13.3 mg/mL): >7 days
- Stability at Room Temperature (30% HP-β-CD, 25% PEG 400 (v/v), M4N 12.5 mg/mL): >7 days
- Dissolution After Heating at X ° C. (30% HP-β-CD, 25% PEG 400 (v/v), M4N 12.5 mg/mL, 60°): Y at 60°
- Stability at Room Temperature (30% HP-β-CD, M4N 1 mg/mL): >7 days
- Dissolution After Heating at X ° C. (30% HP-β-CD, M4N 1 mg/mL, 90°): Y at 90°
- Stability at Room Temperature (30% HP-β-CD, M4N 10 mg/mL): <3 days
- Dissolution After Heating at X ° C. (30% HP-β-CD, M4N 10 mg/mL, 90°): Y at 90°
- Dissolution After Heating at X ° C. (30% HP-β-CD, M4N 20 mg/mL, 90°): N at 90°
- Dissolution After Heating at X ° C. (30% HP-β-CD, M4N 50 mg/mL, 90°): N at 90°
- Dissolution After Heating at X ° C. (30% HP-β-CD, M4N 100 mg/mL, 90°): N at 90°
- Stability at Room Temperature (32% HP-β-CD, 20% PEG 400 (v/v), M4N 10 mg/mL): >7 days
- Dissolution After Heating at X ° C. (32% HP-β-CD, 20% PEG 400 (v/v), M4N 10 mg/mL, 60°): Y at 60°
- Dissolution After Heating at X ° C. (40% HP-β-CD, 1% PVP (w/v), M4N 1 mg/mL): N
- Dissolution After Heating at X ° C. (40% HP-β-CD, 1% PVP (w/v), M4N 10 mg/mL): N
- Dissolution After Heating at X ° C. (40% HP-β-CD, 2.5% PG (v/v), M4N 1 mg/mL, 80°): N at 80°
- Dissolution After Heating at X ° C. (40% HP-β-CD, 2.5% PG (v/v), M4N 10 mg/mL, 80°): N at 80°
- Stability at Room Temperature (40% HP-β-CD, M4N 1 mg/mL): >7 days
- Dissolution After Heating at X ° C. (40% HP-β-CD, M4N 1 mg/mL, 80°): Y at 80°
- Stability at Room Temperature (40% HP-β-CD, M4N 10 mg/mL): >7 days
- Dissolution After Heating at X ° C. (40% HP-β-CD, M4N 10 mg/mL, 80°): Y at 80°
- Dissolution After Heating at X ° C. (40% HP-β-CD, M4N 12 mg/mL, 80°): N at 80°
- Dissolution After Heating at X ° C. (40% HP-β-CD, M4N 14 mg/mL, 80°): N at 80°
- Dissolution After Heating at X ° C. (40% HP-β-CD, M4N 16 mg/mL, 80°): N at 80°
- Dissolution After Heating at X ° C. (40% HP-β-CD, M4N 20 mg/mL, 80°): N at 80°
- Dissolution After Heating at X ° C. (40% HP-β-CD, M4N 50 mg/mL, 80°): N at 80°
- Dissolution After Heating at X ° C. (40% HP-β-CD, M4N 100 mg/mL, 80°): N at 80°
- Stability at Room Temperature (50% HP-β-CD in saline, M4N 10 mg/mL): >7 days
- Dissolution After Heating at X ° C. (50% HP-β-CD in saline, M4N 10 mg/mL, 90°): Y at 90°
- Stability at Room Temperature (50% HP-β-CD, 1.25% PVP (w/v), M4N 1 mg/mL): <3 days
- Dissolution After Heating at X ° C. (50% HP-β-CD, 1.25% PVP (w/v), M4N 1 mg/mL, 90°): Y at 90°
- Dissolution After Heating at X ° C. (50% HP-β-CD, 1.25% PVP (w/v), M4N 10 mg/mL): N
- Dissolution After Heating at X ° C. (50% HP-β-CD, 1.25% PVP (w/v), M4N 50 mg/mL): N
- Stability at Room Temperature (50% HP-β-CD, M4N 1 mg/mL): >7 days
- Dissolution After Heating at X ° C. (50% HP-β-CD, M4N 1 mg/mL, 90°): Y at 90°
- Stability at Room Temperature (50% HP-β-CD, M4N 10 mg/mL): >7 days
- Dissolution After Heating at X ° C. (50% HP-β-CD, M4N 10 mg/mL, 90°): Y at 90°
- Dissolution After Heating at X ° C. (50% HP-β-CD, M4N 20 mg/mL, 90°): N at 90°
- Dissolution After Heating at X ° C. (50% HP-β-CD, M4N 50 mg/mL, 90°): N at 90°
- Dissolution After Heating at X ° C. (50% HP-β-CD, M4N 100 mg/mL, 90°): N at 90°
- remained in solution after cooling (M4N 1 mg/mL and 10 mg/mL in 40% HP-β-CD): greater than 7 days
